Reference: patent US9919021B2, “Brain permeant peptidomimetic beta-secretase 1 inhibitors for the treatment or prophylaxis of neurological disorders or conditions” (IBET—INSTITUTO DE BIOLOGIA EXPERIMENTAL E TECNOLOGICA, priority 2016, dated 2018)
Like-named read-outs stand apart in the source and are kept apart here. Starred links: 1 amine or outer side, 2 acyl side, 3 side chain; linkers in the order of their positions; H or OH if unused. Non-standard residues stand in square brackets, D forms with d. Residues, ends and D or L forms follow the SMILES beside them. LeuΨ(S-CHOHCH2)Ala = CC(C)C[C@H](N[*:1])[C@@H](O)C[C@@H](C)C(=O)[*:2]

Columns and labels:
[1] = design: species or system Wistar rats; settings: in vivo, iv; for detection in serum samples: rat
Procedure: Female mice (n=12, 8-12 weeks, weighing 22-37 g) and male Wistar rats (n=8, 8-12 weeks, weighing 182-201 g) were purchased from Harlan Ibérica, Barcelona, Spain. All animals received a standard diet and water ad libitum. Experiments were conducted according to the Home Office Guidance in the Operation of Animals (Scientific Procedures) Act 1986, published by Her Majesty's Stationary Office, London, UK and the Institutional Animal Research Committee Guide for the Care and Use of Laboratory Animals published by the US National Institutes of Health (NIH Publication No. 85-23, revised 1996), as well as to the currently adopted EC regulations (2010/63/EU). Finally, the studies are in compliance with the ARRIVE Guidelines for Reporting Animal Research' summarized at www.nc3rs.org.uk. Before experiments animals were fasted for 24 h.
PBS was used to prepare a solution of Ia for intravenous administration at a dose of 0.53 mg/kg. Experiments were done in triplicate. Mice and Wistar rats were sacrificed at 0.5, 1 and 2 hours after dosing and were previously anesthetized with sodium pentobarbital (6 mg/kg i.p.) for collection of blood by cardiac puncture and brain tissue was perfused by intraventricular injection of 10 mL of chilled saline solution to remove residual blood.
Serum was isolated from the blood samples by centrifugation at 657 g for 10 min, at 4° C. Serum proteins were precipitated with one volume of acetonitrile and were removed by centrifugation at 14000 g for 10 min. Brain was promptly removed and washed with PBS and blotted dry. Meninges were carefully removed. In the case of Wistar rats only cortex and hippocampus were collected while for mice the whole brain was used. The brain samples were homogenized with 2 volumes (V/w) of PBS/acetonitrile/Triton X-100 (50/50/0.5) using firstly a pestle and then a pipette and finally a sonicator. Compound Ic was added as internal standard to best mimic the recovery of compound Ia. The pellet was removed centrifuging at 14000 g for 10 min. Samples were purified by preparative reverse-phase HPLC Using a C18 column (Jupiter, Phenomenex) 250×21.2 mm, 5 μm. Chromatographic conditions were as follow: eluent (A) water/TFA (99.9:0.1, V/V), (B) acetonitrile/water/TFA (90:9.9:0.1, V/V). The linear gradient was started at 80% A, graded to 68% for 2 min and then was kept at 68% for 17 min finally grading to 0% A for 5 min. The flow rate was 10 mL/min and the column was at room temperature. […]
For identification of Ia and its metabolite in Wistar rat brain, samples were analyzed using a 4800plus MALDI-TOF/TOF (AB Sciex) mass spectrometer in the positive reflector MS and MS/MS modes with 3200 laser shots per spectrum and data was collected using the 4000 Series Explorer Software v.3.5.3 (Applied Biosystems). […]

[2] = in vitro; type: in vitro ADME, mice; settings: mouse, brain homogenate, t1/2 brain
Procedure: An assay for in vitro metabolic stability was accomplished in order to test the influence of N-terminal acylation on the metabolization profile of the compounds. Therefore, compounds were prepared at 50 μM in phosphate-buffered saline (PBS) with 2% DMSO. An amount of 10 μL of the solution was added to human serum (40 μL) or to 10% of mice brain homogenate in PBS with 0.5% Triton X-100 (40 μL). All compounds were tested using the same biological samples of human serum and mice brain homogenate to ensure identical deactivation conditions. The solutions were incubated during different time periods at 37° C., after which metabolization was stopped by adding one volume of acetonitrile. Precipitated serum and brain proteins were removed by centrifugation at 14 000g for 10 min. […] The remaining peptide in the supernatant was quantified by HPLC-FLU (Merck Hitachi, Elite LaChrom), (exλ=255 nm and emλ=285 nm, to detect compounds containing phenylalanine, and exλ=275 nm and emλ=307 nm whenever tyrosine is present). Chromatographic conditions were as described for determination of enzyme activities. A calibration curve was built for each compound, and the decay in the concentration of the peptide in the incubated samples was followed until approximately 50% decay. The metabolization kinetics of the synthetic peptides followed a monophasic behaviour in vitro.

[3] = mouse, in vivo, iv
[4] = in vivo pharmacokinetic study in mice after intravenous Ia; settings: for detection in brain samples: after intravenous Ia 0.53 mg/kg, HPLC-FLU and LC-MS
[5] = target: T1, BACE-1 (human, recombinant) (Homo sapiens, UniProt P56817); experiment: BACE-1 activity assay (fluorogenic substrate, HPLC-FLU); type: biochemical
T1 construct: purchased Sigma-Aldrich
T1 sequence (P56817 46-501): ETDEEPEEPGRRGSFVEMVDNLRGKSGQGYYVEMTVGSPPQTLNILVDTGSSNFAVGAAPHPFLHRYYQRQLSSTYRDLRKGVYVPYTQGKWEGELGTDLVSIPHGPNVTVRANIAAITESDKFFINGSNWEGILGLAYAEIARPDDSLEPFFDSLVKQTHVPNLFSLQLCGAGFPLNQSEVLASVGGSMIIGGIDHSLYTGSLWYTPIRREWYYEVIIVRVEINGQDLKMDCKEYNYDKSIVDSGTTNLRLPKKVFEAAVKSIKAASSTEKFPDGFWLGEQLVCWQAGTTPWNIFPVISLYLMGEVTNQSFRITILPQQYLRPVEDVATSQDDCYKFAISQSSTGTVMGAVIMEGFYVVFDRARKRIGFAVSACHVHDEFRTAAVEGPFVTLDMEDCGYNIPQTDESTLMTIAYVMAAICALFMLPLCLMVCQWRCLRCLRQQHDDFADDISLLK
Text: The program started at 90% A for two min, graded to 70% A during ten min and finally to 0% A during two min.

[6] = target: T2, BACE-2 (human, recombinant) (Homo sapiens, UniProt Q9Y5Z0); experiment: BACE-2 activity assay (fluorogenic substrate, HPLC-FLU); type: biochemical; settings: pH 4.5, 37° C.; mean value ± standard deviation, n = 3; read-out: Ki^app BACE-2
T2 construct: purchased Enzo
T2 sequence (Q9Y5Z0 63-518): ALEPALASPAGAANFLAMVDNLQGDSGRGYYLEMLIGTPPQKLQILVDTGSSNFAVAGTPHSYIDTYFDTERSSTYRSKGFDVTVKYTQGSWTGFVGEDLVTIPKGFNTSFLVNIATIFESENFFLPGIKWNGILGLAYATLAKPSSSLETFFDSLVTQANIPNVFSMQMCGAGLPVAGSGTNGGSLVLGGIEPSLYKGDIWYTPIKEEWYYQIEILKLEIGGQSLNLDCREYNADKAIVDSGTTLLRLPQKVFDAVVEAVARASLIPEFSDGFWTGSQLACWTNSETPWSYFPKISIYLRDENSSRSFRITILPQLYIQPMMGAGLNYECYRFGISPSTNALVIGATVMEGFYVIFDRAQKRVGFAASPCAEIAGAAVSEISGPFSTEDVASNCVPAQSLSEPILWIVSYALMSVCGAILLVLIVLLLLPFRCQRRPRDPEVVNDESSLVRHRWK

[7] = pro-BACE-1, pH 4.5, 37° C., mean value ± standard deviation, n = 3, read-out: Ki BACE-1

| Compound | detection in rat cortex [1] | detection in serum samples [1] | half-life at 10 µM [2] | concentration in mice brain [3] | detection in brain samples [4] | Ki [5, 7] | Ki [6] | Ki [5] | detection in serum samples ([4]; half an hour after intravenous Ia 0.53 mg/kg, HPLC-FLU) |
| --- | --- | --- | --- | --- | --- | --- | --- | --- | --- |
| CC(C)C[C@H](NC(=O)[C@@H](N)CCC(=O)O)C(=O)N[C@@H](CC(=O)O)C(=O)N[C@@H](CC(C)C)[C@@H](O)C[C@@H](C)C(=O)N[C@H](C(=O)N[C@@H](Cc1ccccc1)C(=O)N[C@@H](Cc1ccc(O)cc1)C(=O)N[C@@H](C)C(=O)N[C@@H](CCC(=O)O)C(=O)N[C@@H](CC(=O)O)C(=O)O)C(C)C [Ig] (H-ELD[LeuΨ(S-CHOHCH2)Ala]VFYAED-OH) | detected | detected | 6 ± 0.3 h | approximately 20 nM | found within therapeutic concentrations | 1.7 ± 0.2 nM | 12.7 ± 1.9 nM | – | – |
| CC(C)C[C@H](NC(=O)[C@@H](N)CCC(=O)O)C(=O)N[C@@H](CC(=O)O)C(=O)N[C@@H](CC(C)C)[C@@H](O)C[C@@H](C)C(=O)N[C@H](C(=O)N[C@@H](CCC(=O)O)C(=O)N[C@@H](Cc1ccccc1)C(=O)O)C(C)C [OM00-3, reference compound] (H-ELD[LeuΨ(S-CHOHCH2)Ala]VEF-OH) | – | – | 5.8 ± 0.7 h | – | – | – | 3 ± 0.3 nM | – | – |
| CC(C)C[C@H](NC(=O)[C@@H](N)CCC(=O)O)C(=O)N[C@@H](CC(=O)O)C(=O)N[C@@H](CC(C)C)[C@@H](O)C[C@@H](C)C(=O)N[C@H](C(=O)N[C@@H](Cc1ccccc1)C(=O)N[C@@H](Cc1ccc(O)cc1)C(=O)N[C@@H](C)C(=O)N[C@@H](CCC(=O)O)C(=O)N[C@@H](CC(=O)O)C(N)=O)C(C)C [Ic] (H-ELD[LeuΨ(S-CHOHCH2)Ala]VFYAED-NH2) | – | – | 2.3 ± 0.1 h | – | – | 1.9 ± 0.2 nM | 14.2 ± 2.2 nM | 2 ± 0.1 nM | – |
| CC(C)C[C@H](NC(=O)[C@@H](N)CCC(=O)O)C(=O)N[C@@H](CC(=O)O)C(=O)N[C@@H](CC(C)C)[C@@H](O)C[C@@H](C)C(=O)N[C@H](C(=O)N[C@@H](Cc1ccccc1)C(=O)N[C@@H](Cc1ccccc1)C(=O)N[C@@H](C)C(=O)N[C@@H](CCC(=O)O)C(=O)N[C@@H](CC(=O)O)C(N)=O)C(C)C [Id] (H-ELD[LeuΨ(S-CHOHCH2)Ala]VFFAED-NH2) | – | – | – | – | – | 2 ± 0.1 nM | 7.3 ± 0.9 nM | – | – |
| CC(=O)N[C@@H](CCC(=O)O)C(=O)N[C@@H](CC(C)C)C(=O)N[C@@H](CC(=O)O)C(=O)N[C@@H](CC(C)C)[C@@H](O)C[C@@H](C)C(=O)N[C@H](C(=O)N[C@@H](Cc1ccccc1)C(=O)N[C@@H](Cc1ccc(O)cc1)C(=O)N[C@@H](C)C(=O)N[C@@H](CCC(=O)O)C(=O)N[C@@H](CC(=O)O)C(N)=O)C(C)C [Ia] (Ac-ELD[LeuΨ(S-CHOHCH2)Ala]VFYAED-NH2) | not detected | detected | 3.4 h | – | could not be detected | 2 ± 0.6 nM | 18.3 ± 0.5 nM | – | not detected |
